ChEMBL document CHEMBL4265921, “Novel bisphosphonates with antiresorptive effect in bone mineralization and osteoclastogenesis” (Eur J Med Chem, 2018)
Activity calls are given as the source filed them. No cut-off for these calls is given here.

Tests used:
J774.A1 [1] = assay: Antiproliferative activity against mouse J774A.1 cells assessed as reduction in cell viability at 100 uM after 72 hrs by WST8 assay; type: functional, cell-based
PC-3 [2] = assay: Antiproliferative activity against human PC3 cells assessed as reduction in cell viability at 100 uM after 72 hrs by WST8 assay; type: functional, cell-based
Bone marrow cell [3] = assay: Induction of mineralization in C57BL mouse bone marrow cells co-cultured with human PC3 cells at 50 to 100 nM supplemented with fresh medium containing compound every 3 days for 10 to 15 days by alizarin red dye based assay; type: functional
J774.A1 [4] = assay: Antiproliferative activity against mouse J774A.1 cells assessed as change in cell proliferation at 100 uM after 72 hrs by crystal violet staining based assay relative to control; type: functional
Bone marrow cell [5] = assay: Induction of mineralization in C57BL mouse bone marrow cells at >50 nM supplemented with fresh medium containing compound every 3 days for 10 to 15 days by alizarin red dye based assay; type: functional
RAW264.7 [6] = assay: Antiproliferative activity against mouse RAW264.7 cells assessed as reduction in cell viability at 100 uM after 72 hrs by WST8 assay; type: functional, cell-based
Hydroxyapatite = assay: Binding affinity to hydroxyapatite at 100 uM using sodium salt form of compound after 5 mins by ESI/MS analysis
RAW264.7 [7] = assay: Inhibition of RANKL-induced osteoclastogenesis in mouse RAW264.7 cells after 72 hrs by TRAP staining based microscopic analysis; type: functional, cell-based
MC3T3-E1 [8] = assay: Induction of mineralization in mouse MC3T3-E1 cells at >500 nM after 10 to 15 days by alizarin red dye based assay; type: functional, cell-based
PC-3 [9] = assay: Antiproliferative activity against human PC3 cells assessed as change in cell proliferation at 100 uM after 72 hrs by crystal violet staining based assay relative to control; type: functional
Bone marrow cell [10] = assay: Cytotoxicity against C57BL mouse bone marrow cells assessed as decrease in cell proliferation at 100 to 500 uM after 72 hrs by crystal violet staining based assay; parameters: scale not given: the % may be the effect or the level left
MG-63 [11] = assay: Antiproliferative activity against human MG63 cells assessed as reduction in cell viability at 100 uM after 72 hrs by WST8 assay; type: functional, cell-based
Bone marrow cell [12] = assay: Induction of mineralization in C57BL mouse bone marrow cells co-cultured with human PC3 cells at >100 nM supplemented with fresh medium containing compound every 3 days for 10 to 15 days by alizarin red dye based assay; type: functional
Bone marrow cell [13] = assay: Induction of cell proliferation in C57BL mouse bone marrow cells at 100 nM after 72 hrs by crystal violet staining based assay; settings: 0.1 µM
MC3T3-E1 [14] = assay: Induction of mineralization in mouse MC3T3-E1 cells at 30 to 50 nM after 10 to 15 days by alizarin red dye based assay; type: functional, cell-based
MG-63 [15] = assay: Antiproliferative activity against human MG63 cells assessed as change in cell proliferation at 100 uM after 72 hrs by crystal violet staining based assay relative to control; type: functional
Bone marrow cell [16] = assay: Induction of mineralization in C57BL mouse bone marrow cells at 50 nM supplemented with fresh medium containing compound every 3 days for 10 to 15 days by alizarin red dye based assay; type: functional
RAW264.7 [17] = assay: Antiproliferative activity against RANKL-differentiated mouse RAW264.7 cells assessed as reduction in cell viability at 100 uM after 72 hrs by CCK8 assay; type: functional, cell-based
RAW264.7 [18] = assay: Antiproliferative activity against mouse RAW264.7 cells assessed as change in cell proliferation at 100 uM after 72 hrs by crystal violet staining based assay relative to control; type: functional
Bone marrow cell [19] = assay: Cytotoxicity against C57BL mouse bone marrow cells assessed as effect on cell proliferation at 0.03 to 500 uM after 72 hrs by crystal violet staining based assay
[20] = target: T1, Farnesyl pyrophosphate synthase (Homo sapiens, UniProt P14324); assay: Inhibition of recombinant human C-terminal His6-tagged FPPS expressed in Escherichia coli BL21 using DMAPP and IPP as substrates pretreated for 15 mins followed by substrates addition and measured after 1 hr by colorimetric method
T1 sequence (P14324 whole entry): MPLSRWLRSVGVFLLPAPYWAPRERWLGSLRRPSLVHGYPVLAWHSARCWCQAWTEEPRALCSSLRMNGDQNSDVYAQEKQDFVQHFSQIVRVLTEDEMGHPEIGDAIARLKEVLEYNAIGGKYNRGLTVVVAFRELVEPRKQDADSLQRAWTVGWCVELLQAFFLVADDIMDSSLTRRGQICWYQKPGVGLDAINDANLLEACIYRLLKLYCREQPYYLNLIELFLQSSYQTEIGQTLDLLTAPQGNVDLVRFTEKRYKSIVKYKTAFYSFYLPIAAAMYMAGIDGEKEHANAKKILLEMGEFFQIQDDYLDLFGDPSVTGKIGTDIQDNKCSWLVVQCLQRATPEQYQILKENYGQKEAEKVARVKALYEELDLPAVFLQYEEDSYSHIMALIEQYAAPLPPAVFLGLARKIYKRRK

J774.A1 [21] = assay: Antiproliferative activity against mouse J774A.1 cells assessed as reduction in cell proliferation at 500 uM after 72 hrs by crystal violet staining based assay; type: functional
MG-63 [22] = assay: Antiproliferative activity against human MG63 cells assessed as reduction in cell proliferation at 500 uM after 72 hrs by crystal violet staining based assay; type: functional
[23] = target: T2, Farnesyl pyrophosphate synthase (Homo sapiens) (UniProt P14324); assay: Inhibition of recombinant human C-terminal His6-tagged FPPS expressed in Escherichia coli BL21 at 1 to 10 uM using DMAPP and IPP as substrates pretreated for 15 mins followed by substrates addition and measured after 1 hr by colorimetric method relative to control
T2 sequence (whole entry): T1 sequence (P14324 whole entry)

RAW264.7 [24] = assay: Antiproliferative activity against mouse RAW264.7 cells assessed as reduction in cell proliferation at 500 uM after 72 hrs by crystal violet staining based assay; type: functional
[25] = target: T3, Geranylgeranyl pyrophosphate synthase (Homo sapiens) (UniProt O95749); assay: Inhibition of recombinant human C-terminal His6-tagged GGPPS expressed in Escherichia coli BL21 at 1 to 10 uM using IPP and FPP as substrates pretreated for 15 mins followed by substrates addition and measured after 1 hr by colorimetric method relative to control
T3 sequence (whole entry): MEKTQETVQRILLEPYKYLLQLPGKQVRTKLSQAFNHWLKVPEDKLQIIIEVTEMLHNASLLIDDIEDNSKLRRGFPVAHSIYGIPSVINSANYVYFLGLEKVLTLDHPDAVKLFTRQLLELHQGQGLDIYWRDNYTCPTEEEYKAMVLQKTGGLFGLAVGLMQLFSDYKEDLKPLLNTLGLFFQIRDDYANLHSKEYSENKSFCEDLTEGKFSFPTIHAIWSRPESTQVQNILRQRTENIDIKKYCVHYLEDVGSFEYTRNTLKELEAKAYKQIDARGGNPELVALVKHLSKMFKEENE

Bone marrow cell [26] = assay: Induction of cell proliferation in C57BL mouse bone marrow cells at 30 nM after 72 hrs by crystal violet staining based assay; settings: 0.03 µM
PC-3 [27] = assay: Antiproliferative activity against human PC3 cells assessed as reduction in cell proliferation at 500 uM after 72 hrs by crystal violet staining based assay; type: functional
[28] = target: T2, Farnesyl pyrophosphate synthase (Homo sapiens); assay: Inhibition of recombinant human C-terminal His6-tagged FPPS expressed in Escherichia coli BL21 at 100 uM using DMAPP and IPP as substrates pretreated for 15 mins followed by substrates addition and measured after 1 hr by colorimetric method relative to control
PC-3 [29] = assay: Antiproliferative activity against human PC3 cells assessed as reduction in cell viability at 2.14 uM after 72 hrs by WST8 assay; type: functional, cell-based
MG-63 [30] = assay: Antiproliferative activity against human MG63 cells assessed as reduction in cell viability at 2.14 uM after 72 hrs by WST8 assay; type: functional, cell-based

Row | SMILES | Activity (J774.A1 [1]) | Activity (PC-3 [2]) | Activity (Bone marrow cell [3]) | Activity (J774.A1 [4]) | Activity (Bone marrow cell [5]) | Activity (RAW264.7 [6]) | Activity (Hydroxyapatite) | inhibition (RAW264.7 [7]) | Activity (MC3T3-E1 [8]) | Activity (PC-3 [9]) | Activity (MG-63 [11]) | Activity (Bone marrow cell [12]) | Activity (MC3T3-E1 [14]) | Activity (MG-63 [15]) | Activity (Bone marrow cell [16]) | Activity (RAW264.7 [17]) | Activity (RAW264.7 [18]) | Activity (Bone marrow cell [19]) | other results
1 | O.O=P(O)(O)C(O)(Cn1ccnc1)P(=O)(O)O [ZOLEDRONIC ACID] | Active | Active | Active | -60.657% | inactive | Active | > 95% | Active | inactive | -28.408% | Active | inactive | Active | -27.901% | Active | Active | -54.523% | – | Activity (Bone marrow cell [10]): 20%; Activity (Bone marrow cell [13]): Toxic
2 | O=P(O)(O)C(O)(Cc1cccnc1)P(=O)(O)O [RISEDRONIC ACID] | Active | Active | inactive | – | inactive | Active | 87% | Active | inactive | – | Active | inactive | – | – | Active | Active | – | Non-Toxic | –
3 | O=P(O)(O)C(O)(CNc1ncccn1)P(=O)(O)O | Active | Active | Active | -31.512% | inactive | Active | 90% | Active | inactive | -29.682% | Active | inactive | Active | -16.295% | Active | Active | -47.365% | – | IC50 [20]: 310 nM; Activity (J774.A1 [21]): inactive; Activity (MG-63 [22]): inactive; inhibition [23]: 68 to 79%; Activity (RAW264.7 [24]): inactive; inhibition [25]: 68 to 79%; Activity (Bone marrow cell [26]): Toxic; Activity (PC-3 [27]): inactive; inhibition [28]: 96%
4 | CN[C@@H]1C[C@H]2O[C@@](C)([C@@H]1OC)n1c3ccccc3c3c4c(c5c6ccccc6n2c5c31)C(=O)NC4 | – | – | – | – | – | – | – | – | – | – | – | – | – | – | – | – | – | – | Activity (PC-3 [29]): Active; Activity (MG-63 [30]): Active
5 | NCCCC(O)(P(=O)(O)O)P(=O)(O)O [ALENDRONIC ACID] | Active | Active | inactive | – | inactive | Active | – | Active | inactive | – | Active | inactive | – | – | Active | Active | – | Non-Toxic | –
